A value given as a limit tells only on which side of the number the result lay.

The term melting point denotes the temperature, or range, at which the solid turns liquid.

On to `Cc1ccc2c(c1)c(=O)c1c(cnn1C)n2CCCNS(C)(=O)=O`, for which the melting point was 179 °C.

Take `COCc1cc2c(s1)CCc1cc(=O)n(-c3ccc(Cl)cc3)nc1-2`: the melting point was 159 to 160 °C.

`Clc1cc(Nc2cc(C3CC3)n[nH]2)nc(Sc2ccc3ccccc3c2)n1` registered a melting point of 118 to 120 °C.

Take `COc1cc(CCCn2ccnc2)ccc1OCc1coc(-c2cccs2)n1`: the melting point fell in the range of 94 to 95 °C.

In the case of `CCCCCC(=O)CCc1ccc(CCCCCCCC(=O)O)o1`, the melting point is 64 to 65 °C.

Compound `COc1ccc(-c2cc3ccccc3[nH]2)cc1N` registered a melting point of 208 to 209 °C.

The compound `Cc1cc(S(=O)(=O)NCC(O)(CO)c2ccccc2)ccc1Cl` (stereo not drawn) yielded a melting point of 105 to 106 °C.

`COc1ccc(C(=O)c2ccc3c(c2)CC(C(=O)O)C3)cc1` (stereo not drawn) returned a melting point of 149 to 151 °C.

As for `COc1cc(OC)c2c(=O)[nH]c(-c3ccc(OCCN4CCCC4)cc3)nc2c1`, the melting point lay within 226 to 227 °C.

`O=C1N(Cc2ccc(-c3ccccc3C(F)(F)F)o2)c2ccccc2C12COc1cc3c(cc12)OCO3` (stereo not drawn) had a melting point of 124 to 126 °C.

The compound `[N-]=[N+]=NCC1OC(n2c(N=[N+]=[N-])nc3c(N)ncnc32)C(O)C1O` (stereo not drawn) yielded a melting point of 128 to 130 °C.

As for `Cn1c2c(cnc3c([N+](=O)[O-])cccc32)c(=O)n1C(=O)OC(C)(C)C`, the melting point was above 250 °C.

`CCOc1c(OC)cccc1-c1nc2ccc(C(=O)O)cc2c(=O)[nH]1` came in with a melting point of 168 to 169 °C.

`COc1cc(OC(C)=O)c2ccccc2c1OC(C)=O` gave a melting point of 135 to 136 °C.

As to `O=C(COc1cc(-c2ccc(Cl)cc2)nc2ccccc12)N1CCSCC1`, the melting point stood at 117 °C.

Regarding `CCN1CC(NC(=O)c2cc(Cl)c(N)cc2OC)C=N1` (stereo not drawn), the melting point lay in the range of 132 to 134 °C.

Regarding `CCCCN1CSC(=S)N(Cc2ccncc2)C1`, the melting point is 75 to 80 °C.

`COc1ccc(NC(=O)OC(C)(C)C)c(C)c1`: the melting point was in the range of 80 to 82 °C.

The compound `CCOC(=O)c1cn2c3c(c(F)c(F)cc3c1=O)CCC2CO` (stereo not drawn) came in with a melting point of 256 to 258 °C.

On to `C[C@@H](N(CC(=O)O)C(=O)c1ccc(OC(F)(F)F)cc1)[C@](O)(Cn1cncn1)c1ccc(F)cc1F` (relative stereo), for which the melting point fell in the range of 99 to 105 °C.

As for `COc1ccc2oc(C(=O)OCC(C)(C)C(O)C(C)(C)C)cc2c1` (stereo not drawn), the melting point was 114 °C.

`Cc1ccc(NC(=O)c2c(C)cccc2NC(=O)OC(C)(C)C)cc1` showed a melting point of 250 °C.

On to `COc1ccc([N+](=O)[O-])c(Br)c1OC`, for which the melting point lay within 120 to 122 °C.

The compound `CC(C)c1nc2ccccn2c(=O)c1-c1ccc(Cl)cc1` yielded a melting point of 98 to 100 °C.

Take `Cn1ncc(C(=O)N2CC(F)C2)c1C(=O)Nc1ccn2nc(-c3cccnc3)nc2c1`: the melting point was in the range of 247 to 249 °C.

In turn, `CC(C)COc1ccc(-c2nc3cccc(C(=O)O)c3s2)cc1C#N` showed a melting point of 268 to 270 °C.

For the compound `Nc1cc(=O)n(Cc2ccc(-c3ccccc3)cc2)[nH]1`, the melting point lay in the range of 185 to 186 °C.

Take `CCCCOc1ccc2[nH]c(C(=O)O)cc2c1`: the melting point is 153 °C.

On to `COc1ccc(C(=O)C=Cc2ccccc2O)c(OC)c1OC`, for which the melting point was 123 °C.

In turn, `CN1C2=C(CSC2)C(=O)Nc2cccnc21` yielded a melting point of 240 to 241 °C.

In turn, `Cc1c(N2CCN(Cc3ccccc3)CC2)c(F)cc2c(=O)c(C(=O)O)cn(C3CC3)c12` came in with a melting point of 209 to 211 °C.

Regarding `COc1cc(OC)c2c3c(oc2c1)CC(C(=O)O)CC3` (stereo not drawn), the melting point lay within 194 to 196 °C.

Compound `CC1Cc2cc3c(cc2C(c2ccc([N+](=O)[O-])cc2)=NN1c1nc(C(=O)O)cs1)OCO3` (stereo not drawn) displayed a melting point above 260 °C.

Take `CCn1cc(C2CCC3(CC2)OCCO3)c2cc(C#N)ccc21`: the melting point fell in the range of 124 to 126 °C.

As to `Cc1cc(C2=NN(C(=S)Cl)[C@H](C)Cc3cc4c(cc32)OCO4)cc(C)c1[N+](=O)[O-]`, the melting point is 216 °C.

For `CC1(C)NC(=O)CN1C(=O)CNC(=O)CN1CC(O)CC1=O` (stereo not drawn), the melting point was 227 to 229 °C.

`COc1ccc(C=CC(=O)O)cc1-c1cc2c(cc1OCCCO)C(C)(C)CCC2(C)C` yielded a melting point of 198 to 200 °C.

On to `CC(C)(NC(=O)C1=C(C(=O)Nc2cc(OC3CCCC3)c(Cl)cc2F)CCCC1)c1cccc(Cl)c1`, for which the melting point was in the range of 222 to 226 °C.

`CCc1cc(Oc2cccnc2)c(S(C)(=O)=O)cc1C(=O)N=C(N)N` yielded a melting point of 219 to 223 °C.

Regarding `CSc1c(CC(=O)O)ccc2c1[nH]c1ccccc12`, the melting point was in the range of 210 to 212 °C.

In turn, `COc1cc(C)c(C=CC(C)=CC=CC(C)=CCO)c(C)c1C` returned a melting point of 128 to 130 °C.

Take `CCN(CC)c1ccc(C(=O)c2ccccc2C(=O)O)cc1`: the melting point came to 184 °C.

`C=C(C)[C@@H]1CC[C@](C)(O)[C@@H](n2ccnc2)C1` registered a melting point of 126 to 128 °C.

Turning to `CC1CCc2ccc(OCC(O)CNC(C)(C)C)cc2O1` (stereo not drawn), the melting point lay within 92 to 94 °C.

Compound `COC(=O)c1ccc(C(=O)Nc2cccc(Nc3nc(-c4cccnc4)cs3)c2)cc1` yielded a melting point of 237 °C.

`O=C(CC(NC(=O)COCc1ccccc1)c1ccccc1)Nc1n[nH]c(=S)s1` (stereo not drawn) yielded a melting point of 190 to 191 °C.

On to `CC1(C)CC(O)CC(C)(C)N1CC(O)CN1C(C)(C)CC(O)CC1(C)C`, for which the melting point was in the range of 186 to 190 °C.

Take `COc1ccc(C2=NN(c3ccc(CC(=O)N4CCOCC4)cc3)C(=O)C(C)(C)C2)cc1OC`: the melting point lay in the range of 165 to 167 °C.

`COc1cc(C(=O)O)cc(OC)c1N(C)C` gave a melting point of 65 to 69 °C.

Compound `CCCCCCNc1ccccc1CC(=O)Nc1c(C(C)C)cccc1C(C)C` returned a melting point of 110 to 112 °C.

`Cc1cc(-c2nn(C3CCCC3)c3c(F)cccc23)ccc1O` showed a melting point of 107 °C.

In turn, `NC1=NN(c2ccccc2)C(c2ccc(Cl)c(Cl)c2)C1` (stereo not drawn) showed a melting point of 150 to 152 °C.

For the compound `COc1cccc2c(CCCNC3COc4c(F)ccc(C(N)=O)c4C3)c[nH]c12` (stereo not drawn), the melting point lay in the range of 196 to 198 °C.

`CC(O)c1cc2cc(OCC(=O)O)c(Cl)c(Cl)c2s1` (stereo not drawn) showed a melting point of 173 to 175 °C.

Regarding `CCOC(=O)c1cnc2sc(C(=O)Cc3ccccc3)c(C)c2c1O`, the melting point fell in the range of 208 to 214 °C.

As for `C(=C\c1nc(CSc2ccc(CCCn3ccnc3)cc2)co1)/c1ccccc1`, the melting point fell in the range of 74 to 75 °C.

For the compound `COc1cc(OC)c2c(=O)[nH]c(-c3cc(C)c(OCCN4CCOCC4)c(C)c3)cc2n1`, the melting point fell in the range of 212 to 213 °C.

Compound `O=C(O)COc1cc2c(c(Cl)c1Cl)C(=O)CCC2` yielded a melting point of 250 to 252 °C.

`CSC(=S)N1Cc2c(c3ccccc3n2C)CC1C(=O)O` (stereo not drawn) registered a melting point of 212 to 213 °C.

`C#CCSc1nc(Cl)cc(NCc2ccc(Cl)cc2)n1` returned a melting point of 85 to 88 °C.

For `CNS(=O)(=O)c1cc(C)sc1CC(=O)O`, the melting point came to 109 °C.

In the case of `COC(=O)CCN(C)CCNC(=O)c1nc(Cl)c(N)nc1N`, the melting point lay in the range of 136 to 137 °C.

`CN(CC(C)(C)NCc1c(CO)ccc(OCc2ccccc2)c1CO)c1ccccc1`: the melting point fell in the range of 93 to 98 °C.

With `NCCOc1cc(-c2ccccn2)nc(-c2ccccn2)c1`, the melting point lay within 134 to 137 °C.

The compound `Cc1ccc2c(c1)C1=NN(c3ccc(OCCCN4CCCCC4)cc3)C(=O)CC1CC2` (stereo not drawn) returned a melting point of 171 to 172 °C.

Take `Cc1nc2c([nH]c(=O)c3ccccc32)s1`: the melting point fell in the range of 310 to 320 °C.

Consider `N#Cc1ccc(NC(=O)c2cccc(S(=O)(=O)N3CCOCC3)c2)c(-c2nnn[nH]2)c1`, for which the melting point fell in the range of 230 to 232 °C.

Consider `COc1ccc(CCN(C)CCOc2ccc(NC(=O)c3cc(SC)cc4c(=O)c5ccccc5[nH]c34)cc2)cc1OC`, for which the melting point is 150 °C.

On to `COc1cc2cc(C(=O)N3CC(CCl)c4c3cc(OCc3ccccc3)c3ncccc43)[nH]c2c(OC)c1OC` (stereo not drawn), for which the melting point fell in the range of 182 to 184 °C.

On to `COc1cc(Nc2c(C#N)cnc3cc(C#CCN(C)C)sc23)c(Cl)cc1Cl`, for which the melting point is 164 to 166 °C.

Compound `CCCCCCCCCC(=O)OCC#Cc1ncn2c1CN(C)C(=O)c1c(Cl)cccc1-2` registered a melting point of 70 to 72 °C.

Turning to `C=C1CCCC2CCC3C(CCC4(C)C3C(C#N)C35OCCOC43OCCO5)C12C` (stereo not drawn), the melting point was 229 °C.

For the compound `CNC(=O)C(=NOC)c1ccccc1C#Cc1ccccc1C`, the melting point was in the range of 128 to 129 °C.

In turn, `CC(=O)c1c(CO[N+](=O)[O-])n(C(C)=O)c(=O)n1C(C)=O` registered a melting point of 135 to 136 °C.

With `COc1ccccc1NS(=O)(=O)c1ccc([N+](=O)[O-])cc1[N+](=O)[O-]`, the melting point lay in the range of 172 to 173 °C.

For `CCOC(=O)c1ccc(/C=C(\C)c2ccc3c(c2)C(C)(C)C(=O)CC3(C)C)cc1`, the melting point was 173 to 174 °C.

`Nc1ccc(OCCCl)cc1`: the melting point fell in the range of 91 to 92 °C.

`Cc1nn(CC(F)(F)COCc2ccccc2)c(-c2ccc(F)cc2)c1-c1ccc2c(c1)NC(=O)CO2` registered a melting point of 154 to 155 °C.

`NC(=O)NN=C1CC(O)C(C=Cc2ccccc2)=C1CCCCCCC(=O)O` (stereo not drawn) showed a melting point of 208 to 210 °C.

`Cc1cc(-c2cnn3c(C(F)(F)F)cc(-c4cccc(C(F)(F)F)c4)nc23)ccn1` showed a melting point of 232 °C.

Take `Cc1c2cccccc-2c(-c2ccccc2)c1-c1ccc(S(C)(=O)=O)cc1`: the melting point lay within 165 to 167 °C.

The compound `Nc1ccc(Cl)cc1C(=O)Nc1ccc(S(=O)(=O)N2CCOCC2)cc1` returned a melting point of 229 to 231 °C.

`Cn1c(C(F)(F)F)cc(=O)n(-c2cc3c(cc2F)nc(C(F)(F)F)n3Cc2cccc(Cl)c2)c1=O` showed a melting point of 91 to 93 °C.

`OCc1cccc(C(O)c2cc(C(F)(F)F)nc3c(C(F)(F)F)cccc23)c1` (stereo not drawn) displayed a melting point of 152 to 154 °C.

Compound `Cc1cc(C2=NNC(C)(C#N)Cc3cc4c(cc32)OCO4)ccc1[N+](=O)[O-]` (stereo not drawn) displayed a melting point of 148 to 151 °C.

Consider `CC(C)(C)c1ccc(C2C=C(c3ccc(C#C[Si](C)(C)C)cc3)NN2c2ccccc2)cc1` (stereo not drawn), for which the melting point was 160 to 162 °C.

In turn, `COCCNc1cncc(C(N)=O)c1` yielded a melting point of 79 to 80 °C.

In turn, `CC(=O)N(CCP(=O)(O)O)Cc1cc([N+](=O)[O-])cc2[nH]c(=O)c(=O)[nH]c12` came in with a melting point of 248 °C.

The record behind these values is a melting point compilation (Tetko et al.; mined from patent text by program, amines drawn as free bases though some values may be those of a salt).
